US4853412A, “N-[[6-methoxy-5-(trifluoromethyl)-1-naphthalenyl]-[substituted imino]methyl]-n-methylglycines” (American Home Products Corporation, priority 1987, dated 1989)

How the values were obtained:
[1] = tested on: lenses of rats fed galactose; assay: galactosemic rats: lowering of galactitol (dulcitol) accumulation in the lens; type: in vivo, rat (Sprague-Dawley); conditions: four days, vs untreated galactosemic rats
Text: (§1) The aldose reductase inhibiting property of the compounds of this invention and the utilization of the compounds in preventing, diminishing and alleviating diabetic complications by lowering polyols accumulation are demonstrable in experiments using galactosemic rats, see Dvornik et al, Science, 182, 1146 (1973). Such experiments are exemplified hereinbelow after the listing of the following general comments pertaining to these experiments:
(§2) (a) Four or more groups of six male rats, 50-70 g, Sprague-Dawley strain, were used. The first group, the control group, was fed a mixture of laboratory chow (rodent Laboratory Chow, Purina) and glucose at 20% (w/w %) concentration. The untreated galactosemic group and the drug-treated groups were fed a similar diet in which galactose is substituted for glucose. The test compound was either admixed to the diet or administered by gavage. In experiments involving compound administration in the diet, the average dose administered was calculated from the actual food intake of the animals in each group. The concentration of galactose in the diet of the treated groups was the same as that for the untreated galactosemic group.
(§3) (b) After four days, the animals were killed by decapitation. The eyeballs were removed and punctured with a razor blade; the freed lenses were rolled gently on filter paper and weighed. The sciatic nerves were dissected as completely as possible and weighed. Both tissues when frozen can be kept up to two weeks before being analyzed for galactitol.
(§4) (c) The polyol determination was performed by a modification of the procedure of M. Kraml and L. Cosyns, Clin. Biochem., 2,373 (1969). Only two minor reagent changes were made: (a) The rinsing mixture was an aqueous 5% (w/v) trichloroacetic acid solution and (b) the stock solution was prepared by dissolving 25 mg of dulcitol in 100 mL of an aqueous trichloroacetic acid solution. [N.B.: For each experiment the average value found in the tissue from rats fed the glucose diet was subtracted from the individual values found in the corresponding tissue in galactose-fed rats to obtain the amount of polyol accumulated.] The aldose reductase inhibiting effects of the compounds of formula (I) were also tested by employing an in vitro testing procedure similar to that described by S. Hayman and J. H. Kinoshita, J. Biol. Chem., 240, 877 (1965). In the present case the procedure of Hayman and Kinoshita was modified in that the final chromatography step was omitted in the preparation of the enzyme from bovine lens.
(§5) The figures under L and N represent the percentage decrease of galactitol accumulation in the tissues of the lens and sciatic nerve, respectively, for treated rats as compared to untreated rats.

[2] = biological target: T1, aldose reductase (Bos taurus, UniProt P16116); assay: in vitro inhibition of aldose reductase from bovine lens (modified Hayman and Kinoshita procedure); type: biochemical; conditions: 10^-7 M
T1 construct: preparation of the enzyme from bovine lens; from tissue; host or cells: bovine lens
Protocol: Only two minor reagent changes were made: (a) The rinsing mixture was an aqueous 5% (w/v) trichloroacetic acid solution and (b) the stock solution was prepared by dissolving 25 mg of dulcitol in 100 mL of an aqueous trichloroacetic acid solution. [N.B.: For each experiment the average value found in the tissue from rats fed the glucose diet was subtracted from the individual values found in the corresponding tissue in galactose-fed rats to obtain the amount of polyol accumulated.] […] In the present case the procedure of Hayman and Kinoshita was modified in that the final chromatography step was omitted in the preparation of the enzyme from bovine lens.

[3] = tested on: sciatic nerves of rats fed galactose; assay: galactosemic rats: lowering of galactitol (dulcitol) accumulation in the sciatic nerve; type: in vivo, rat (Sprague-Dawley); conditions: for % lowering dulcitol accumulation in vivo, N (sciatic nerve): four days, vs untreated galactosemic rats
Text: as §1, §2, §3, §4, §5

SMILES: COc1ccc2c(C(=NC#N)N(C)CC(=O)O)cccc2c1C(F)(F)F [Example 4, N-[(Cyanoimino)[6-methoxy-5-(trifluoromethyl)-1-naphthalenyl]methyl]-N-methylglycine]
- % lowering dulcitol accumulation in vivo, L (lens) ([1]; 26 mg/kg/day p.o.): 0%
- % lowering dulcitol accumulation in vivo, L (lens) ([1]; 100 mg/kg/day p.o.): 0%
- inhibition at 0.1 µM [2]: 80%
- % lowering dulcitol accumulation in vivo, N (sciatic nerve) ([3]; 26 mg/kg/day p.o.): 30%
- % lowering dulcitol accumulation in vivo, N (sciatic nerve) ([3]; 100 mg/kg/day p.o.): 61%
- lowering of polyol accumulation compared with tolrestat (in words) ([3]; 100 mg/kg/day vs tolrestat at 6.4 mg/kg/day): comparable results

SMILES: COc1ccc2c(C(=NS(=O)(=O)C(F)(F)F)N(C)CC(=O)O)cccc2c1C(F)(F)F [Example 5, N-[[6-Methoxy-5-(trifluoromethyl)-1-naphthalenyl][[(trifluoromethyl)sulfonyl]imino]methyl]-N-methylglycine]
- % lowering dulcitol accumulation in vivo, L (lens) ([1]; 56 mg/kg/day p.o.): 0%
- inhibition at 0.1 µM [2]: 69%
- % lowering dulcitol accumulation in vivo, N (sciatic nerve) ([3]; 56 mg/kg/day p.o.): 0%

SMILES: COc1ccc2c(C(=NS(=O)(=O)c3ccc(Br)cc3)N(C)CC(=O)O)cccc2c1C(F)(F)F [Example 6, N-[[[(4-Bromophenyl)sulfonyl]imino][6-methoxy-5-(trifluoromethyl)-1-naphthalenyl]methyl]-N-methylglycine]
- % lowering dulcitol accumulation in vivo, L (lens) ([1]; 55 mg/kg/day p.o.): 0%
- inhibition at 0.1 µM [2]: 5%
- % lowering dulcitol accumulation in vivo, N (sciatic nerve) ([3]; 55 mg/kg/day p.o.): 0%

SMILES: COc1ccc2c(C(=S)N(C)CC(=O)O)cccc2c1C(F)(F)F [tolrestat, N-[[6-methoxy-5-(trifluoromethyl)-1-naphthalenyl]thioxomethyl]-N-methylglycine, reference compound]
- % lowering dulcitol accumulation in vivo, L (lens) ([1]; 6.4 mg/kg/day p.o.): 0%
- % lowering dulcitol accumulation in vivo, N (sciatic nerve) ([3]; 6.4 mg/kg/day p.o.): 50%
